Like-named read-outs stand apart in the source and are kept apart here.
Target: T1, TAAR1 (Mus musculus, UniProt Q923Y8)
T1 construct: expressed in transfected cells; host or cells: HEK293 cells (ATCC # CRL-1573), stably transfected with a pIRESneo2 expression plasmid; membranes prepared from them
Assay: Radioligand binding to TAAR1, membranes of stably transfected HEK293 cells
Description: For the construction of expression plasmids, the coding sequences of human, rat and mouse TAAR 1 were amplified from genomic DNA essentially as described by Lindemann et al. (2005) Genomics 85, 372-385. The Expand High Fidelity PCR System (Roche Diagnostics) was used with 1.5 mM Mg^2F and purified PCR products were cloned into pCR2.1-TOPO cloning vector (Invitrogen) following the instructions of the manufacturer. PCR products were subcloned into the pIRESneo2 vector (BD Clontech, Palo Alto, Calif.), and expression vectors were sequence verified before introduction in cell lines.
HEK293 cells (ATCC # CRL-1573) were cultured essentially as described in Lindemann et al. (2005) Genomics 85, 372-385. For the generation of stably transfected cell lines, HEK293 cells were transfected with the pIRESneo2 expression plasmids containing the TAAR coding sequences (described above) with Lipofectamine 2000 (Invitrogen) according to the instructions of the manufacturer, and 24 hours post transfection, the culture medium was supplemented with 1 mg/ml G418 (Sigma, Buchs, Switzerland). After a culture period of about 10 days, clones were isolated, expanded and tested for responsiveness to trace amines (all compounds purchased from Sigma) with the cAMP Biotrak Enzyme immunoassay (EIA) System (Amersham) following the non-acetylation EIA procedure provided by the manufacturer.
Cells at confluence were rinsed with ice-cold phosphate buffered saline without Ca^2+ and Mg^2+ containing 10 mM EDTA and pelleted by centrifugation at 1000 rpm for 5 minutes at 4° C. The pellet was then washed twice with ice-cold phosphate buffered saline and the cell pellet was frozen immediately by immersion in liquid nitrogen and stored until use at −80° C. The cell pellet was then suspended in 20 ml HEPES-NaOH (20 mM), pH 7.4 containing 10 mM EDTA, and homogenized with a Polytron (PT 3000, Kinematica) at 10,000 rpm for 10 seconds. The homogenate was centrifuged at 48,000×g for 30 minutes at 4° C. and the pellet resuspended in 20 ml HEPES-NaOH (20 mM), pH 7.4 containing 0.1 mM EDTA (buffer A), and homogenized with a Polytron at 10,000 rpm for 10 seconds. The homogenate was then centrifuged at 48,000×g for 30 minutes at 4° C. and the pellet resuspended in 20 ml buffer A, and homogenized with a Polytron at 10,000 rpm for 10 seconds. Protein concentration was determined by the method of Pierce (Rockford, Ill.). The homogenate was then centrifuged at 48,000×g for 10 minutes at 4° C., resuspended in HEPES-NaOH (20 mM), pH 7.0 including MgC12 (10 mM) and CaCl2 ([…]) (buffer B) at 200 μg protein per ml and homogenized with a Polytron at 10,000 rpm for 10 seconds.
Binding assay was performed at 4° C. in a final volume of 1 ml, and with an incubation time of 30 minutes. The radioligand [^3H]-rac-2-(1,2,3,4-tetrahydro-1-naphthyl)-2-imidazoline was used at a concentration equal to the calculated Kd value of 60 nM to give a total binding at around 0.1% of the total added radioligand concentration, and a specific binding which represented approximately 70-80% of the total binding. Non-specific binding was defined as the amount of [^3H]-rac-2-(1,2,3,4-tetrahydro-1-naphthyl)-2-imidazoline bound in the presence of the appropriate unlabelled ligand (10 μM). Competing ligands were tested in a wide range of concentrations ([…]). […] Each experiment was performed in duplicate. All incubations were terminated by rapid filtration through UniFilter-96 plates (Packard Instrument Company) and glass filter GF/C, pre-soaked for at least 2 hours in polyethylenimine 0.3%, and using a Filtermate 96 Cell Harvester (Packard Instrument Company). The tubes and filters were then washed 3 times with 1 ml aliquots of cold buffer B. Filters were not dried and soaked in Ultima gold (45 μl/well, Packard Instrument Company) and bound radioactivity was counted by a TopCount Microplate Scintillation Counter (Packard Instrument Company).

[1] = mouse TAAR1, radioligand [3H]-rac-2-(1,2,3,4-tetrahydro-1-naphthyl)-2-imidazoline at 60 nM, 4° C., 30 minutes, read-out: Ki (μM) mouse

T1 sequence (Q923Y8 whole entry): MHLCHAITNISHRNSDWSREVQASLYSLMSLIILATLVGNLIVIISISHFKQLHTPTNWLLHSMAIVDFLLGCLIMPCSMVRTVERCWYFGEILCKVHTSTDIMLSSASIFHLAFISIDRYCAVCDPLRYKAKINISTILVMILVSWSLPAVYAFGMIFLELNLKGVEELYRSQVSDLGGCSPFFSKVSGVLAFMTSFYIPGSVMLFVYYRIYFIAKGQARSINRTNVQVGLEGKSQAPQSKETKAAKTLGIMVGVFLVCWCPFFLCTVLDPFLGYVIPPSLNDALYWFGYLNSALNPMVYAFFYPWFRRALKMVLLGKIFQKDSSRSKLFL

Ki [1] | SMILES | Ki | also measured
 | c1ccc2c(c1)CCCC2C1=NCCN1 (racemic) [[^3H]-rac-2-(1,2,3,4-tetrahydro-1-naphthyl)-2-imidazoline, reference compound] |  | Kd (radioligand used at a concentration equal to its calculated Kd, TAAR1 species not given): 60 nM
 | CCC(Cc1cnc[nH]1)c1ccccc1 (stereo not drawn) [Example 1, 4-(2-Phenyl-butyl)-1H-imidazole] | 0.0609 µM | 
 | Clc1ccccc1CCc1cnc[nH]1 [Example 5, 4-[2-(2-Chloro-phenyl)-ethyl]-1H-imidazole] | 0.0059 µM | 
 | COc1ccccc1CCc1cnc[nH]1 [Example 8, 4-[2-(2-Methoxy-phenyl)-ethyl]-1H-imidazole] | 0.0843 µM | 
 | Clc1cccc(CCc2cnc[nH]2)c1 [Example 11, 4-[2-(3-Chloro-phenyl)-ethyl]-1H-imidazole] | 0.0025 µM | 
 | Fc1cccc(CCc2cnc[nH]2)c1 [Example 12, 4-[2-(3-Fluoro-phenyl)-ethyl]-1H-imidazole] | 0.0097 µM | 
 | FC(F)(F)c1cccc(CCc2cnc[nH]2)c1 [Example 13, 4-[2-(3-Trifluoromethyl-phenyl)-ethyl]-1H-imidazole] | 0.0106 µM | 
 | COc1cccc(CCc2cnc[nH]2)c1 [Example 14, 4-[2-(3-Methoxy-phenyl)-ethyl]-1H-imidazole] | 0.0606 µM | 
 | Clc1ccc(CCc2cnc[nH]2)cc1 [Example 16, 4-[2-(4-Chloro-phenyl)-ethyl]-1H-imidazole] | 0.0172 µM | 
 | Clc1cc(Cl)cc(CCc2cnc[nH]2)c1 [Example 17, 4-[2-(3,5-Dichloro-phenyl)-ethyl]-1H-imidazole] | 0.0019 µM | 
0.043 µM | Clc1cccc(OCc2cnc[nH]2)c1Cl [Example 20, 4-(2,3-Dichloro-phenoxymethyl)-1H-imidazole] |  | 
0.0889 µM | Fc1cccc(OCc2cnc[nH]2)c1F [Example 35, 4-(2,3-Difluoro-phenoxymethyl)-1H-imidazole] |  | 
0.0227 µM | Clc1ccc(OCc2cnc[nH]2)cc1Cl [Example 36, 4-(3,4-Dichloro-phenoxymethyl)-1H-imidazole] |  | 
0.0802 µM | Fc1cc(OCc2cnc[nH]2)ccc1Cl [Example 37, 4-(4-Chloro-3-fluoro-phenoxymethyl)-1H-imidazole] |  | 
0.0684 µM | c1ncc(COc2ccc3ccoc3c2)[nH]1 [Example 39, 5-(Benzofuran-6-yloxymethyl)-1H-imidazole] |  | 
0.0041 µM | Clc1cccc(SCc2cnc[nH]2)c1Cl [Example 42, 5-(2,3-Dichloro-phenylsulfanylmethyl)-1-imidazole] |  | 
0.0146 µM | Cc1[nH]cnc1CSc1ccc(Cl)cc1 [Example 46, 4-(4-Chloro-phenylsulfanylmethyl)-5-methyl-1H-imidazole] |  | 
0.0103 µM | c1ccc2cc(SCc3c[nH]cn3)ccc2c1 [Example 47, 4-(Naphthalen-2-ylsulfanylmethyl)-1H-imidazole] |  | 

From US20120004230A1, “IMIDAZOLE DERIVATIVES” (priority 2006, published 2012)
